Conditions: Liquid, Vibrating tube method

FCC(F)(F)F [1,1,1,2-tetrafluoroethane]
Conditions | mass density [kg/m3]
283.25 K, 60000 kPa | 1416.44
283.26 K, 1000 kPa | 1265.88
283.26 K, 5000 kPa | 1282.35
283.26 K, 10000 kPa | 1300.86
283.26 K, 20000 kPa | 1331.64
283.26 K, 40000 kPa | 1379.61
283.26 K, 80000 kPa | 1446.35
302.84 K, 20000 kPa | 1276.99
302.84 K, 40000 kPa | 1333.11
302.84 K, 80000 kPa | 1408.64
302.85 K, 1000 kPa | 1190.34
302.85 K, 5000 kPa | 1214.03
302.85 K, 10000 kPa | 1238.45
302.85 K, 60000 kPa | 1374.79
322.62 K, 5000 kPa | 1140.59
322.63 K, 10000 kPa | 1174.6
322.63 K, 20000 kPa | 1224.02
322.64 K, 40000 kPa | 1290.68
322.64 K, 60000 kPa | 1338.04
322.64 K, 80000 kPa | 1375.39
342.56 K, 5000 kPa | 1047.23
342.56 K, 10000 kPa | 1098.48
342.56 K, 20000 kPa | 1163.35
342.56 K, 40000 kPa | 1242.84
342.57 K, 60000 kPa | 1296.48
342.57 K, 80000 kPa | 1337.6
362.57 K, 5000 kPa | 924.58
362.58 K, 10000 kPa | 1014.86
362.58 K, 20000 kPa | 1102.88
362.58 K, 40000 kPa | 1197.86
362.58 K, 60000 kPa | 1258.31
362.58 K, 80000 kPa | 1303.78

From the NIST ThermoML archive (doi:10.1016/j.jct.2013.09.035)
